Results: patent US8101605B2, “SHIP1 modulators and methods related thereto” (Aquinox Pharmaceuticals Inc., priority 2009, dated 2012)

What was measured:
His-hSHIP1 enzyme = target: T1, His-hSHIP1 enzyme (Homo sapiens, UniProt Q92835); assay: His-hSHIP1 phosphatase activity assay (IP4 substrate, Biomol Green); assay type: biochemical; conditions: percentage increase relative to background; concentrations ≦300 μM
T1 sequence (Q92835 1-1189): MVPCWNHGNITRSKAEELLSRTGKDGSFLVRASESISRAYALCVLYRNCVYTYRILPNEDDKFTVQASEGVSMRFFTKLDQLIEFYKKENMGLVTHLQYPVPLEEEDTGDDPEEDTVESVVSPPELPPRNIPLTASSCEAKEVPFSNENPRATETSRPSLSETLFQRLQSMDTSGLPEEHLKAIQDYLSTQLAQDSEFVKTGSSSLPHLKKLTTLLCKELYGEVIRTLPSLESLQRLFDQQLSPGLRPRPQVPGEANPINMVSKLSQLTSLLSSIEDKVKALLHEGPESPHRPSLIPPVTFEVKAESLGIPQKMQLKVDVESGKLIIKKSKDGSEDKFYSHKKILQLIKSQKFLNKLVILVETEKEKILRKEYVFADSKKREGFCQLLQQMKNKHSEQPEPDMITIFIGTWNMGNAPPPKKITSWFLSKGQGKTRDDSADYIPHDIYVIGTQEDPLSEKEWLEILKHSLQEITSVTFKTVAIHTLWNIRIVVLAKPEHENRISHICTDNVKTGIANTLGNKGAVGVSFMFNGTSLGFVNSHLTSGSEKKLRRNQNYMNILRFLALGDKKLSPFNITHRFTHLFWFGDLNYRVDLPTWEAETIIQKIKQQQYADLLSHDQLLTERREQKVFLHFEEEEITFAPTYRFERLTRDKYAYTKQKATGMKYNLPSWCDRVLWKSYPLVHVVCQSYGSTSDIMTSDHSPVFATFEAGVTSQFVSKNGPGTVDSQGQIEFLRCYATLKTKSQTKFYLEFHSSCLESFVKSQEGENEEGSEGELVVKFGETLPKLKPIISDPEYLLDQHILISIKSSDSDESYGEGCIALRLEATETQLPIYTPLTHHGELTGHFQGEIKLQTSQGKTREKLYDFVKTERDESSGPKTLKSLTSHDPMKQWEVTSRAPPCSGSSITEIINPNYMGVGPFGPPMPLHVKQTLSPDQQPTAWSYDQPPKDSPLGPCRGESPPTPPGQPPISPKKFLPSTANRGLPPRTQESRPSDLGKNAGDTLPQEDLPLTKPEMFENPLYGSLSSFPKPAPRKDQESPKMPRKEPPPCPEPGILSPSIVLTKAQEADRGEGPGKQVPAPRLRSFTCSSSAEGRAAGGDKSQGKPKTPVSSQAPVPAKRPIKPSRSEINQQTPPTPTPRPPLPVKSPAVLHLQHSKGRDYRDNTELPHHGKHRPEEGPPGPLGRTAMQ
Outline: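 His-hSHIP1 (15–20 ng) was incubated with IP4 (50 μM final) and compound (0–300 μM final, from 10% ethanol solutions) in 20 mM Tris-HCl, 10 mM MgCl2 pH 7.5, 0.02% Tween 20 for 15 min at 37 °C. Released phosphate was read with Biomol Green at 650 nm. Activation is % increase over background, scored + (<50%), ++ (≥50% but <65%), +++ (≥65%).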

[1] = tested on: allergen-induced passive cutaneous anaphylaxis; assay: Passive cutaneous anaphylaxis in mice; assay type: in vivo; conditions: oral gavage, doses less than 20 mg/kg
Experimental: The activity of representative compounds on passive cutaneous anaphylaxis in mice was evaluated according to the procedures disclosed by Ovary, J Immunol 81, 355-357, 1958 and Halpern et al., Br J Pharmacol Chemother 20, 389-398, 1963, both of which are incorporated herein by reference in their entirety. To induce a passive cutaneous anaphylaxis, mice underwent intradermal ear inoculation on their right ear with 25 ng in 20 μL of anti-DNP-IgE. The left ears were untreated and served as negative controls. Twenty-four hours after inoculation, all mice were administered test compound by oral gavage (PO). Sixty minutes after oral administration, mice were given a tail vein injection of 2% Evan's blue (0.2 μm filtered, in 200 μL saline) followed by a second tail IV injection of 100 μg DNP-HSA (in 200 μL). Sixty minutes following the DNP-HSA injection, mice were euthanized using CO2 inhalation. Subsequently, ear biopsies were performed by taking four millimetre punches from both ears, which then underwent Evan's Blue extraction using formamide incubation in 96 well plates. Eighty μL of eluents were transferred to flat-bottom 96-well plates and absorbance read using SpectraMax M5 spectrophotometer (Molecular Devices, Sunnyvale, Calif., USA) at 620 nm. Background readings from all samples were taken at 740 nm and subtracted from the 620 nm readings. Data were reported as OD. […] Scoring in Table 4 is expressed as follows: + (1-30% inhibition); ++ (31-50% inhibition); +++ (>50% inhibition).

[2] = tested on: Akt phosphorylation in Molt-4 (PTEN−/SHIP1+) cells; assay: Akt phosphorylation in IGF-1 stimulated Molt-4 lymphocytes (western blot); assay type: cell-based; design: key: +: inhibits Akt phosphorylation at 10 μM; −: no effect on Akt phosphorylation at 10 μM; conditions: 10 μM; IGF-1 stimulation
Experimental: (§1) Jurkat (PTEN−/SHIP1−) or Molt-4 (PTEN−/SHIP1+) cells were starved in serum free RPMI for overnight. In a 15 mL conical tube, 2-3 million serum starved cells (1 million cells per mL) were treated with various concentrations of test compound (0.1, 1, or 10 μM final in 0.1% DMSO) for 30 min at 37° C. followed by stimulation with 100 ng/mL of IGF-1 for 1 hour at 37° C. After stimulation, cells were washed once with ice-cold DPBS and lysed with Lysis Buffer (20 mM Tris-HCl, pH 7.5, 140 mM NaCl, 1% NP-40, Complete Mini Protease Inhibitor Cocktail, 10 mM NaF, 1 mM Na3VO4, 1 mM β-glycerolphosphate) on ice for 30 min with vortexing every 10 min. Samples were then centrifuged at 13,000 rpm for 20 min, and supernatants were collected as total cell lysate samples. Protein concentration was determined using bicinchonic acid assay, and about 15 μg of total protein from each sample was loaded and separated on a 4-12% Tris-Glycine gel. After SDS-PAGE, proteins were transferred from the gel to a nitrocellulose membrane. The membrane was blocked in 5% BSA in PBS containing 0.1% Tween-20 (PBS-T) for 1 hour at room temperature before probing with primary antibodies for overnight at 4° C. The following antibodies were used: mouse anti-SHIP1 (1:500 dilution; Santa Cruz, Calif., USA), rabbit anti-phospho-Akt(Ser473) (1:1000 dilution; Cell Signaling Technologies, MA, USA), rabbit anti-Akt (1:1000; Cell Signaling Technologies, MA, USA), and rabbit anti-actin (1:2000; Cell Signaling Technologies, MA, USA). The membrane was then incubated with goat anti-rabbit or anti-mouse secondary antibodies (1:3000) for 1 hour at room temperature. Target proteins on the membrane were detected with ECL solution and exposed on a film.
(§2) Scoring in Table 3 is expressed as follows: + (inhibits Akt phosphorylation at 10 μM); − (no effect on Akt phosphorylation at 10 μM).

[3] = tested on: Akt phosphorylation in Jurkat (PTEN−/SHIP1−) cells; assay: Akt phosphorylation in IGF-1 stimulated Jurkat lymphocytes (western blot); assay type: cell-based; design: key: +: inhibits Akt phosphorylation at 10 μM; −: no effect on Akt phosphorylation at 10 μM; conditions: 10 μM; IGF-1 stimulation
Experimental: as §1, §2

| SMILES | Scoring: percent (%) activation of His-hSHIP1 enzyme (His-hSHIP1 enzyme) | Scoring: inhibition of passive cutaneous anaphylaxis [1] | Akt phosphorylation, Molt-4 (SHIP1+) [2] | Akt phosphorylation, Jurkat (SHIP1−) [3] |
| --- | --- | --- | --- | --- |
| CC1(C)CCC[C@]2(C)[C@H]3COc4c(O)cc(O)cc4[C@]3(C)CC[C@@H]12 [Compound No. 43, (1R,10R,11S,16S)-1,11,15,15-tetramethyl-8-oxatetracyclo[8.8.0.0^2,7.0^11,16]octadeca-2,4,6-triene-4,6-diol] | + (<50%) | + (1-30% inhibition) |  |  |
| CC1(C)CCC[C@]2(C)[C@H]3COc4cc(O)cc(O)c4[C@]3(C)CC[C@@H]12 [Compound No. 50, (1R,10R,11S,16S)-1,11,15,15-tetramethyl-8-oxatetracyclo[8.8.0.0^2,7.0^11,16]octadeca-2,4,6-triene-3,5-diol] | + (<50%) |  | + | − |
